From article PMC3914206

Key:
panel of 442 kinases [1] = target: T1, panel of 442 kinases (Homo sapiens, UniProt P43403); type: binding; settings: kinase ZAP70; compound concentration 10 µM
T1 construct: purchased KINOMEscan
T1 sequence (P43403 1-619): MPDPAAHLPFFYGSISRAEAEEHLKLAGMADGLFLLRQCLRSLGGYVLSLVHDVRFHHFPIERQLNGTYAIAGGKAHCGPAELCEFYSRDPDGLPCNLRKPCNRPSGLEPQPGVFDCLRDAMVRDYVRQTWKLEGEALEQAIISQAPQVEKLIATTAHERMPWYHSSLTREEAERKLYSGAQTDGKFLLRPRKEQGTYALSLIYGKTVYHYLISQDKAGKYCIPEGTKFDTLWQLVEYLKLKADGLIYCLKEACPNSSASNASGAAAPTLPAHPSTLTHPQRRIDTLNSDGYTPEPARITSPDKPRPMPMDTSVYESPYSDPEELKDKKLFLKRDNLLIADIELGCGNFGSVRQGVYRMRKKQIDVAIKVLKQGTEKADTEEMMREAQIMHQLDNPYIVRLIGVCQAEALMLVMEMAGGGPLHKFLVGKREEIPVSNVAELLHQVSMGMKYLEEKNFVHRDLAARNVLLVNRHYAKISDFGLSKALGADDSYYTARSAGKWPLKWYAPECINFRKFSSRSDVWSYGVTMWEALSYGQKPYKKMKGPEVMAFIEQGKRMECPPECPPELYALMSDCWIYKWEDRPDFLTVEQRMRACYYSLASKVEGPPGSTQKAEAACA
Description: (§1) We assessed the selectivity of members of this scaffold using the KINOMEscan methodology across a near comprehensive panel of 442 kinases [[18,27]].

panel of 442 kinases [2] = target: T2, panel of 442 kinases (Homo sapiens, UniProt Q9UEE5); type: binding; settings: Compound Concentration 10 µM
T2 construct: purchased KINOMEscan
T2 sequence (Q9UEE5 1-414): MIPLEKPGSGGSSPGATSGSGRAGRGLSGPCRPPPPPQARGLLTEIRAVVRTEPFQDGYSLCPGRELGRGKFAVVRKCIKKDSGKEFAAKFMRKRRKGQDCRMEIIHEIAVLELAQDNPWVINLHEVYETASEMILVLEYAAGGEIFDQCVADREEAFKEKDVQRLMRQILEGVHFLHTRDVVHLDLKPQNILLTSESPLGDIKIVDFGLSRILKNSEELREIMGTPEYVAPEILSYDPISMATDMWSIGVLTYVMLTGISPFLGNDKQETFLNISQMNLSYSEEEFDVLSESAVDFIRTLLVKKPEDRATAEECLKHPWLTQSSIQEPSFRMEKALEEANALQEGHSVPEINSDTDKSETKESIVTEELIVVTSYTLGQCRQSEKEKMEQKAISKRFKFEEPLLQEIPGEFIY
Description: as §1

Structure (SMILES) | % Ctrl, ZAP70 (panel of 442 kinases [1]) [% Ctrl] | KINOMEscan: DRAK1 (panel of 442 kinases [2])
COc1cc(C(=O)N2CCC(N3CCN(C)CC3)CC2)ccc1Nc1ncc2c(n1)N(C)c1ccccc1C(=O)N2C [15 (LRRK2-IN-1)] | 79 | 100
CCOc1cc(C(=O)N2CCC(N3CCN(C)CC3)CC2)ccc1Nc1ncc2c(n1)N(C1CCCC1)c1ccccc1C(=O)N2C [Compound 26] | 90 | 100
COc1cc(C(=O)N2CCC(N3CCN(C)CC3)CC2)ccc1Nc1ncc2c(n1)N1CCc3cccc(c31)C(=O)N2C [Compound 24] | 100 | 
COc1cc(C(=O)N2CCC(N3CCN(C)CC3)CC2)ccc1Nc1ncc2c(n1)N(C1CCCC1)c1ccccc1C(=O)N2C [Compound 25, 11-cyclopentyl-2-((2-methoxy-4-(4-(4-methylpiperazin-1-yl)piperidine-1-carbonyl)phenyl)amino)-5-methyl-5H-benzo[e]pyrimido[5,4-b][1,4]diazepin-6(11H)-one] | 79 | 100
